Measured values published in patent publication US20260209777A1, “TARGETING GLYCOSYLPHOSPHATIDYLINOSITOL (GPI) PATHWAY PROTEINS TO TREAT OVARIAN CANCER” (UNIVERSITY OF MASSACHUSETTS, priority 2023, published 2026).

Assays:
Assay type in all cases: cell-based, human
[1] = test system: CD24 cell surface expression in OVCAR8 cells; assay: CD24 flow cytometry analysis in OVCAR8 cells; settings: for CD24 cell surface expression (MFI): OVCAR8, 3 days, bestatin 10 or 20 μM, tosedostat 5 or 10 μM, ARM1 1 or 2 μM, vs DMSO
Protocol: Flow Cytometry Analysis: For cell surface protein staining, 1×10^5-1×10^6 cells were first incubated with Fc receptor blocking solution, Human TruStain FcXTM (BioLegend, Cat #422301) for 10 minutes at room temperature. Cells were washed once in FACS buffer (1×PBS, 1.0% bovine serum albumin (BSA) (Sigma) and 0.2% sodium azide (Sigma), and then incubated with antibodies (given below) for 30 minutes at 4° C. in the dark. Cells were also stained with 7-AAD (Biolegend, Cat #420404) for dead cell exclusion, and flow cytometry analysis was performed using a Bio-Rad ZE5 Cell Analyzer. Following antibodies used in this study (all antibodies were used at 1:50 dilution unless otherwise noted): APC anti-human CD24 (BioLegend, Cat #311118, clone ML5), PE anti-human CD24 (eBioscience, Cat #12-0247-42, clone SN3), APC anti-human CD47 (BioLegend, Cat #323124, clone CC2C6), APC anti-human § 2-microglobulin (BioLegend, Cat #395711, clone […]), PE anti-human HLA-A2 (MHC-class I) (BioLegend, Cat #343305, clone BB7.2), APC anti-human CD11b (BioLegend, Cat #982604, clone ICRF44), APC anti-mouse F4/80 antibody (BioLegend, Cat #123116, clone BM8), APC-streptavidin (Thermo Fisher Scientific, Cat #SA1005, 1:100 dilution), PE anti-Calreticulin (Invitrogen, Catalog #MA5-15382, 1:200 dilution). For intracellular staining, cells were fixed with 1% paraformaldehyde for 5 min and permeabilized using the True-Nuclear Transcription Factor Buffer Set (BioLegend, Cat #424401) before the addition of the antibody. Small Molecule Inhibitor and Drug Treatments: OVCAR8 or SKOV3 cells were treated for 3 days with bestatin (Ubenimex) (SelleckChem, Cat #S1591) at 5, 10 or 20 μM (as indicated in the figure legends), Tosedostat (Medchem Express, Cat #HY-14807) at 5 μM or 10 μM (as indicated in the figure legends) or ARM-1 (Medchem Express, Cat #HY-W027340) at 1, or 2 μM (as indicated in the figure legends). Inhibitors were replenished every 24 hours. DMSO (Sigma Aldrich, Cat #D8418) was used as a vehicle. OVCAR8 cells were treated with Docetaxel (SelleckChem, Cat #S1148) at 100 nM or Carboplatin (SelleckChem, Cat #S1215 at 100 nM or Doxorubicin (SelleckChem, Cat #E2516) at 50 nM for 12 hours.

normal B cells = assay: In vitro phagocytosis assay of normal B cells by PBMC-derived M2 macrophages; settings: for phagocytosis of B cells: bestatin 20 μM, tosedostat 10 μM vs DMSO, anti-CD24 antibody (clone SN3) vs IgG (FIG. 9B); for selectivity, CD24+ ovarian cancer cells relative to normal CD24+ B cells: comparison of FIG. 9B and 9C
Description: Macrophage Generation and Stimulation: Primary human donor-derived macrophages were generated as described previously (Martinez, Curr Protocol Immunol 2012, Chapter 14:14.28.1-14.28.23). In brief, Leukopaks from anonymous donors were obtained from the Rhode Island Blood (Providence, RI) and peripheral blood […] (PBMCs) were isolated by density gradients centrifugation using Ficoll Paque Plus (Sigma-Aldrich, Cat #17-1440-02) followed by RBC lysis using RBC lysis buffer (eBioscience, Cat #00-4333-57). For monocyte isolation, PBMCs were incubated in Monocyte Attachment Medium (Sigma-Aldrich, Cat #C-28051) for 1 hour at 37° C. and 5% CO2 and then washed three times in Iscove's Modified Dulbecco's Medium (IMDM) (Gibco, Cat #12440053) to remove non-adherent cells. The remaining monocytes were detached and seeded in 96-well plates and cultured at 37° C. and 5% CO2 in IMDM supplemented with 10% FBS (Atlanta Biologicals, Cat #S11550) and 20 ng/ml recombinant human M-CSF (Peprotech, Cat #AF-300-25). After 4 days monocytes were then treated with 20 ng/ml recombinant human IL-4 (Peprotech, Cat #200-04) and 10 ng/mL recombinant human IL-10 (PeproTech, Cat #200-10) for another 3-4 days to obtain M2 polarized macrophages. Macrophage differentiation was confirmed morphologically using microscopy. M2-macrophage polarization was confirmed by immunophenotyping of the M2 marker CD206 using PE-conjugated anti-human anti-CD206 antibody (BioLegend, Cat #321106, clone 15-2, 1:100 dilution). Primary B-cell Isolation and Culture: Pan B cells were isolated by negative selection from PBMCs isolated from Leukopaks (as described above) using a MojoSort Human Pan B Cell Isolation Kit (BioLegend, Cat #480081) according to the manufacturer's instructions. The purity of B cells was confirmed to be >95% by flow cytometry using a FITC anti-human CD19 antibody (BioLegend, Cat #302205, clone HIB19). B cells were cultured in RPMI 1640 medium supplemented with 5% human serum (Sigma-Aldrich, Cat #H6914), MEM non-essential amino acids solution (Gibco, Cat #1140050), and recombinant human IL-2 (50 ng/ml) (PeproTech, Cat #200-02) and IL-4 (10 ng/ml) (PeproTech, Cat #200-04). In vitro Phagocytosis Assays: To facilitate the quantification of phagocytic events, we adapted a microscopy-based fluorescence phagocytosis […] al., J Immunol Methods 2009, 342(1-2):71-7; Lindner et al., Biotechniques 2020, 68(5):245-250) for use with a Celigo imaging cytometer. […] Phagocytic events were quantified by counting the number of red fluorescent (pHrodo+) cells per well using a Celigo Imaging Cytometer (Nexcelom). […]

SKOV3 cells = assay: In vitro phagocytosis assay of SKOV3 cells by PBMC-derived M2 macrophages; settings: bestatin 20 μM, tosedostat 20 μM, vs DMSO

CC(C)C[C@H](NC(=O)[C@@H](O)[C@H](N)Cc1ccccc1)C(=O)O [bestatin]
total CD24 levels following permeabilization of cells ([1]; OVCAR8, 20 μM bestatin, permeabilized (FIG. 6E)): no significant effect | CD24 cell surface expression (MFI) [1]: reduced CD24 cell surface expression in a dose-dependent manner | ability to decrease CD24 cell surface expression after knockdown of PEPT1 or PEPT2 ([1]; OVCAR8 expressing PEPT1 or PEPT2 shRNA, 20 μM bestatin (FIG. 7C)): abrogated | phagocytosis of B cells (normal B cells): did not undergo phagocytosis | selectivity, CD24+ ovarian cancer cells relative to normal CD24+ B cells (normal B cells): selectivity toward CD24+ ovarian cancer cells relative to normal CD24+ B cells | macrophage-mediated phagocytosis (SKOV3 cells): substantially increased

CC(C)C[C@@H](C(=O)N[C@H](C(=O)OC1CCCC1)c1ccccc1)[C@H](O)C(=O)NO [tosedostat]
CD24 cell surface expression (MFI) [1]: reduced | phagocytosis of B cells (normal B cells): did not undergo phagocytosis | selectivity, CD24+ ovarian cancer cells relative to normal CD24+ B cells (normal B cells): selectivity toward CD24+ ovarian cancer cells relative to normal CD24+ B cells | macrophage-mediated phagocytosis (SKOV3 cells): increased
